Entries after “also recorded” stand apart in the source; their conditions may differ. Like-named read-outs stand apart in the source and are kept apart here.
Assays:
HBV [1] = assay: microbe, parasite or virus in culture; assay type: cell-based, hepatitis B virus genotype D; details: for %Imax, p1 infection: percent maximum inhibition; for effect on p1 cell infection (phenotype): reference inhibitors, assay validation
HBV [2] = assay: microbe, parasite or virus in culture; assay type: cell-based, hepatitis B virus genotype D; details: for %Imax, p2 infection: percent maximum inhibition; for Emax: read-out: %Imax; for p2 cells still infected at high inhibitor concentrations: high concentrations of late-phase reference inhibitors
HBV [3] = details: read-out: Published EC50, cited from earlier work
HepG2-NTCPsec+ cells = assay: Cell viability by automated nuclei counting; assay type: cell-based, human; details: hit confirmation DRC, 10-point serial dilutions starting at 25 μM
NTCP [4] = biological target: T1, NTCP (Homo sapiens, UniProt Q14973); assay: Binding assay of Alexa633-labelled HBV preS1 peptide; details: for effect on preS1 peptide binding to NTCP: cytochalasin D tested up to 50 μM
T1 sequence (Q14973 1-349): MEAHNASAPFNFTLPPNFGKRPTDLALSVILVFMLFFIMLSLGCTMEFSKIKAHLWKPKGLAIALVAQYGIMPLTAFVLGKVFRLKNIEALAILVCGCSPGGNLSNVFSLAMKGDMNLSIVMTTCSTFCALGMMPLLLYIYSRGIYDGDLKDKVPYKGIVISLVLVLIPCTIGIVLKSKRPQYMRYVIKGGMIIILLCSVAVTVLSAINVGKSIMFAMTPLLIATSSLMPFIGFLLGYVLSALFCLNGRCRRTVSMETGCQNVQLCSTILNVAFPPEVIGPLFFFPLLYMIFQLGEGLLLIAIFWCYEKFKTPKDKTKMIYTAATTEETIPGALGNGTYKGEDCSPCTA

SARS-CoV-2 [5] = assay type: cell-based
[6] = test system: HBV preS1 peptide internalisation; assay: Live-cell imaging of Alexa633-labelled preS1 peptide internalisation; assay type: cell-based; details: after transfer to 37°C, confocal live-cell imaging
SARS-CoV-2 [7] = details: virus-free, live-cell assay; cited from earlier work
HBV [8] = assay: Time-of-addition experiments, HBV infection; assay type: cell-based, hepatitis B virus; details: pretreatment/cotreatment vs post-inoculation 1-7 dpi
HIV-1 = assay type: cell-based, HIV-1 strain LAI; details: Fig. S3
HBV [9] = assay: Stably HBV replicating HepAD38 cells, supernatant HBV DNA by quantitative PCR; assay type: cell-based, hepatitis B virus; details: supernatant qPCR at 7 days post-treatment
HCV = assay type: cell-based
NTCP [10] = biological target: T1, NTCP; details: transiently NTCP-transfected U2OS cells; cited from earlier work
HBV and HDV = details: cited from earlier work
[11] = read-out: EC50, p1 infection, p1 cells, DRC of reference inhibitors
[12] = Hepatitis B virus, read-out: EC50 (μM), early HBV life cycle inhibitors

COC(=O)C1=C(C)NC(c2ncc(F)cc2F)=N[C@H]1c1ccc(F)cc1Cl [Bay41-4109]
%Imax, p1 infection (HBV [1]; p1 cells): 99% | EC50 (HBV [1]; [11]): 1.3 µM | %Imax, p2 infection (HBV [2]; p2 cells): 99%

O=C(CN(c1cc(C(F)(F)F)ccc1Cl)S(=O)(=O)c1ccccc1)NCc1ccncc1 [CCC-0975]
%Imax, p1 infection (HBV [1]; p1 cells): 60% | EC50 (HBV [1]; [11]): ~5 µM | effect on p1 cell infection (phenotype) (HBV [1]): inhibited HBV infection in p1 and p2 cells | EC50 (HBV [3]; System HepDE19, ref PMID 22644022): 10 µM | effect on p2 cell infection / infectivity of HBV progeny (HBV [2]; after supernatant transfer): inhibited HBV infection in p1 and p2 cells | EC50 (HBV [2]; read-out: EC50, p2 infection (after supernatant transfer), p2 cells): ~8 µM

CC(C)(C)c1cc(C(=O)/C=C/c2ccc(C(=O)O)cc2)cc(C(C)(C)C)c1 [Ch 55]
%Imax (HBV [2]; p2 inhibitor, hit confirmation DRC): 99.9% | EC50 (HBV [2]; p2 inhibitor, hit confirmation DRC, 10-point serial dilutions starting at 25 μM): 3.21 µM | CC50 (HepG2-NTCPsec+ cells): > 25 µM

C=C1[C@@H](C)[C@H]2[C@H](Cc3ccccc3)NC(=O)[C@]23[C@H](OC(C)=O)/C=C/[C@@](C)(O)C(=O)[C@@H](C)C/C=C/[C@H]3[C@@H]1O [Cytochalasin D, cytochalasin D]
effect on preS1 peptide binding to NTCP (NTCP [4]): did not prevent the binding | effect on preS1 peptide binding to NTCP (NTCP [4]; listed as cytochalasin D): did not interfere with receptor–virus binding | effect on SARS-CoV-2 infection (SARS-CoV-2 [5]; Fig. S3): minor activity in both virus systems; also recorded: inhibits SARS-CoV-2 infection | effect on internalisation of HBV preS1 peptide [6]: prevented the internalisation of HBV; also recorded: partially reduced; also recorded: partial retention of the peptide at the plasma membrane | EC50 (HBV [1]; [12]): 0.07 µM | Imax (%), early HBV life cycle inhibitors (HBV [1]; p1 cells): 86% | effect on SARS-CoV-2 cell entry (SARS-CoV-2 [7]): prevent SARS-CoV-2 cell entry | anti-HBV activity in time-of-addition experiments (HBV [8]): exhibited anti-HBV activity exclusively under the pretreatment/cotreatment conditions | effect on HIV-1 infection (HIV-1): minor activity in both virus systems

Nc1ncn([C@H]2C[C@H](O)[C@@H](CO)O2)c(=O)n1 [Decitabine]
Emax (HBV [2]; Hepatitis B virus): 91.9%

Cc1cccc([C@H](C)c2cnc[nH]2)c1C [Dexmedetomidine, dexmedetomidine]
effect on SARS-CoV-2 infection (SARS-CoV-2 [5]): no inhibition was observed; also recorded: do not interfere in the production and spread | Imax (%), late HBV life cycle inhibitors (HBV [2]): 82% | effect on p2 cell infection / infectivity of HBV progeny (HBV [2]): interfered with the infectivity of HBV progeny; also recorded: mitigated the infectivity of secreted progeny HBV particles; also recorded: strongly suppresses the infectivity of secreted progeny HBV particles | EC50 (HBV [2]; Hepatitis B virus, read-out: EC50 (μM), late HBV life cycle inhibitors): 6.2 µM | EC50 (HBV [2]; read-out: EC50 (μM), late HBV life cycle inhibitors): 6.23 µM | effect on HBV replication / HBV DNA secretion in HepAD38 cells (HBV [9]): without reducing HBV replication or genome secretion; also recorded: did not inhibit HBV DNA replication | effect on HCV replication and secretion (HCV): no inhibition was observed; also recorded: do not interfere in the production and spread

C=C1[C@H](CO)[C@@H](O)C[C@@H]1n1cnc2c(=O)[nH]c(N)nc21 [Entecavir]
Emax (HBV [2]; Hepatitis B virus): 96.7%

O=c1[nH]c(=O)n([C@H]2C[C@H](O)[C@@H](CO)O2)cc1F [Floxuridine]
Emax (HBV [2]; Hepatitis B virus): 97.6%

O=C(O)P(=O)(O)O [Foscarnet]
Emax (HBV [2]; Hepatitis B virus): 94.2%

CCOC(=O)C1=C(CN2CCOCC2)NC(c2nccs2)=NC1c1ccc(F)cc1Br (stereo not drawn) [GLS4]
HBcAg phenotype under CpAM treatment (HBV [1]; class II core protein allosteric modifiers, Fig. S4): aggregated HBcAg phenotype

CC(C)OC(=O)[C@H](C)N[P@](=O)(CO[C@H](C)Cn1cnc2c(N)ncnc21)Oc1ccccc1 [GS-7340]
EC50 (HBV [2]; Hepatitis B virus): < 0.05 µM | Emax (HBV [2]; Hepatitis B virus): 99.4%

O=C1Cc2ccccc2C(=O)N1O [HID, N-hydroxyisoquinolinedione]
EC50 (HBV [1]; [11]): > 50 µM | effect on p1 cell infection (phenotype) (HBV [1]): did not affect the infection status of p1 cells | EC50 (HBV [3]; System HepDES19, ref PMID 24858512): 4.2 µM | effect on p2 cell infection / infectivity of HBV progeny (HBV [2]; after supernatant transfer): reduced number of infected p2 cells | p2 cells still infected at high inhibitor concentrations (HBV [2]): 2–5% | %Imax, p2 infection (HBV [2]; p2 cells): 99%

CN1c2cc3c(cc2N=C(c2ccc(C(=O)O)cc2)c2ccccc21)C(C)(C)CCC3(C)C [LE 135]
%Imax (HBV [1]; p1 inhibitor, hit confirmation DRC): 94.5% | EC50 (HBV [1]; p1 inhibitor, hit confirmation DRC, 10-point serial dilutions starting at 25 μM): 11.7 µM | CC50 (HepG2-NTCPsec+ cells): > 25 µM

Nc1ccn([C@@H]2CS[C@H](CO)O2)c(=O)n1 [LMV, lamivudine]
EC50 (HBV [1]; Hepatitis B virus, read-out: EC50, p1 infection): > 10 µM | EC50 (HBV [2]; Hepatitis B virus, read-out: EC50 (μM), late HBV life cycle inhibitors, infectious HBV genotype D, p2 cells): 0.02 µM | p2 cells still infected at high inhibitor concentrations (HBV [2]): 2–5% | Imax (%), late HBV life cycle inhibitors (HBV [2]; p2 cells): 98%

CC[C@H](C)C(=O)O[C@H]1CCC=C2C=C[C@H](C)[C@H](CC[C@@H]3C[C@@H](O)CC(=O)O3)[C@H]21 [Mevastatin]
Emax (HBV [2]; Hepatitis B virus): 101%

COC(=O)Nc1nc2ccc(C(=O)c3cccs3)cc2[nH]1 [Nocodazole]
Emax (HBV [2]; Hepatitis B virus): 91.8%

CC[C@@H]([C@H](C)O)n1ncn(-c2ccc(N3CCN(c4ccc(OC[C@@H]5CO[C@@](Cn6cncn6)(c6ccc(F)cc6F)C5)cc4)CC3)cc2)c1=O [Posaconazole]
Emax (HBV [2]; Hepatitis B virus): 96.4%

C#CCC(Cc1cnc2nc(N)nc(N)c2n1)c1ccc(C(=O)N[C@@H](CCC(=O)O)C(=O)O)cc1 (stereo partly drawn) [Pralatrexate]
Emax (HBV [2]; Hepatitis B virus): 102%

O=C(Nc1cccc2c(=O)cc(-c3nnn[nH]3)oc12)c1ccc(OCCCCc2ccccc2)cc1 [Pranlukast, pranlukast]
effect on NTCP bile acid transporter function (NTCP [10]): inhibits the bile acid transporter function | EC50 (NTCP [4]): 7.6 µM | effect on preS1 peptide binding to NTCP (NTCP [4]): inhibited HBV preS1 binding | effect on preS1 peptide binding to NTCP (NTCP [4]; listed as pranlukast): blocked the binding | effect on SARS-CoV-2 infection (SARS-CoV-2 [5]; Fig. S3): only inhibited HIV-1; also recorded: but not pranlukast | EC50 (HBV [1]; [12]): 4.3 µM | Imax (%), early HBV life cycle inhibitors (HBV [1]; p1 cells): 92% | anti-HBV activity in time-of-addition experiments (HBV [8]): exhibited anti-HBV activity exclusively under the pretreatment/cotreatment conditions | effect on HIV-1 infection (HIV-1): only inhibited HIV-1

Cc1nc2ccc(CN(C)c3ccc(C(=O)N[C@@H](CCC(=O)O)C(=O)O)s3)cc2c(=O)[nH]1 [Raltitrexed]
Emax (HBV [2]; Hepatitis B virus): 93.7%

Cc1c(C(=O)NN2CCCCC2)nn(-c2ccc(Cl)cc2Cl)c1-c1ccc(Cl)cc1 [Rimonabant]
Emax (HBV [2]; Hepatitis B virus): 99.4%

CCC(C)(C)C(=O)O[C@H]1C[C@@H](C)C=C2C=C[C@H](C)[C@H](CC[C@@H]3C[C@@H](O)CC(=O)O3)[C@H]21 [Simvastatin]
Emax (HBV [2]; Hepatitis B virus): 99.9%

CC(C)OC(=O)OCOP(=O)(CO[C@H](C)Cn1cnc2c(N)ncnc21)OCOC(=O)OC(C)C.O=C(O)/C=C/C(=O)O [TDF, tenofovir disoproxil fumarate]
EC50 (HBV [1]; [11]): > 50 µM | effect on p1 cell infection (phenotype) (HBV [1]): did not affect the infection status of p1 cells | effect on p2 cell infection / infectivity of HBV progeny (HBV [2]; after supernatant transfer): reduced number of infected p2 cells | p2 cells still infected at high inhibitor concentrations (HBV [2]): 2–5%

CC[C@]1(O)C[C@H]2CN(CCc3c([nH]c4ccccc34)[C@@](C(=O)OC)(c3cc4c(cc3OC)N(C=O)[C@H]3[C@@](O)(C(=O)OC)[C@H](OC(C)=O)[C@]5(CC)C=CCN6CC[C@]43[C@@H]65)C2)C1 [Vincristine]
Emax (HBV [2]; Hepatitis B virus): 96.9%

COc1cc(C(=O)NS(=O)(=O)c2ccccc2C)ccc1Cc1cn(C)c2ccc(NC(=O)OC3CCCC3)cc12 [zafirlukast]
concentration significantly inhibiting HBV and HDV infection (HBV and HDV): 6 µM

IFNα
antiviral effect on early HBV life cycle steps (HBV [1]; p1 cells treated over several weeks, Fig. S5A): no or only insignificant antiviral effects | antiviral effect on late HBV life cycle steps (HBV [2]): no or only insignificant antiviral effects

From publication PMC8243515 (JHEP Reports, 2021)
